US20230013669A1, “Antibacterial Treatment Using a Cannabinoid and an Active Agent” (priority 2019, published 2023)
≈ marks a conversion by molar mass, not a printed value. Where “and” joins values, the source holds several entries; their conditions need not be identical. Identical values can stand only once. Counter-ions that a name gives are not always drawn. Like-named read-outs stand apart in the source and are kept apart here. Residues, ends and D or L forms follow the SMILES beside them.

Legend:
Format in all cases: cell-based
[1] = tested on: Klebsiella pneumoniae ATCC 700603; assay: MIC micro-broth dilution assay (Example 1 method); conditions: for MIC: Klebsiella pneumoniae
Protocol: Methods were as for Example 1. Cannabidiol was tested in combination with cefotetan.
Methods were as for Example 1. Cannabidiol was tested in combination with aztreonam.
Methods were as for Example 1. Cannabidiol was tested in combination with cefepime.
Methods were as for Example 1. Cannabidiol was tested in combination with octapeptin C4.
Methods were as for Example 1. Cannabidiol was tested in combination with Spero SPR206. The experiments were carried out three times.

[2] = tested on: Pseudomonas aeruginosa ATCC 27853 (GN_042); assay: MIC micro-broth dilution assay (Example 1 method); conditions: for MIC: Pseudomonas aeruginosa
Protocol: (§6) The plates were covered and incubated at 37° C. for 18-20 h.
(§7) Optical density was read at 600 nm (OD600) using Tecan M1000 Pro Spectrophotometer. […] Analysis was performed using Microsoft Excel.

[3] = tested on: Acinetobacter baumannii ATCC 19606 (GN_034); assay: MIC micro-broth dilution assay (Example 1 method); conditions: for MIC: Acinetobacter baumannii
Protocol: as §6, §7

[4] = tested on: Escherichia coli ATCC 25922 (GN_001); assay: MIC micro-broth dilution assay (Example 1 method); conditions: for MIC: Escherichia coli
Protocol: as §6, §7

[5] = tested on: Klebsiella pneumoniae ATCC 13883 (GN_003 / GN_004); assay: MIC micro-broth dilution assay (Example 1 method); conditions: for MIC: Klebsiella pneumoniae
Protocol: as §6, §7

[6] = tested on: Acinetobacter baumannii AL1851, IpxA mutant; Lipid A deficient (GN_237); assay: MIC broth microdilution, 96-well, visual reading (Example 11); conditions: for MIC: Acinetobacter baumannii, read-out: MIC (Test results), Example 11 Table 41; for MIC / MIC (Test results): GN_237, n=4 replicates; for MIC (Test results): Example 11 Table 41
Protocol: (§1) The experiment was performed to investigate the antimicrobial activity of cannabidiol (CBD) against an LPS deficient strain (GN_237 Acinetobacter baumannii, IpxA mutant; Lipid A deficient; obtained by colistin selection from base strain ATCC 19606) and its parent strain (GN_034, Acinetobacter baumannii, ATCC 19606).
(§2) All plates had flat bottom wells and were covered with low-evaporation lids.
(§3) Two biological replicates ×2 technical replicates were conducted on separate days (final n=4). Inhibition of bacterial growth was determined visually, where the MIC was recorded as the lowest compound concentration with no visible growth.

[7] = tested on: Acinetobacter baumannii ATCC 19606 Type Strain (GN_034); assay: as above; conditions: GN_034, n=4 replicates; for MIC: Acinetobacter baumannii, ATCC19606, read-out: MIC (Test results), Example 11 Table 41; for MIC (Test results): Example 11 Table 41
Protocol: as §1, §2, §3

[8] = tested on: Acinetobacter baumannii ATCC 19606; assay: microbe, parasite or virus in culture
Protocol: (§4) The inoculum was then diluted in CaMHB to give a mid-log phase cultures and 40 μL was added to each well from column 1 to column 18, and column 23. 45 μL of the inoculum was added to each well from column 19 to column 22 to give the final cell density of 5×10^5 CFU/mL. The plates were incubated at 37° C. for 18-20h.
(§5) Optical density was read at 600 nm (OD600) using Gen5 Spectrophotometer. […] Analysis was performed using Microsoft Excel.

[9] = tested on: Klebsiella pneumoniae ATCC 700603; assay: microbe, parasite or virus in culture
Protocol: as §4, §5

[10] = tested on: Escherichia coli ATCC 25922; assay: microbe, parasite or virus in culture
Protocol: as §4, §5

[11] = tested on: Pseudomonas aeruginosa ATCC 27853; assay: microbe, parasite or virus in culture
Protocol: as §4, §5

[12] = ATCC19606, read-out: Minimum Inhibitory Concentration (MIC), Example 5 Table 19, GN_034, compound alone, replicates
[13] = Example 5 Table 19, GN_034, compound alone, replicates
[14] = Pseudomonas aeruginosa ATCC 27853
[15] = Acinetobacter baumannii ATCC 19606
[16] = Klebsiella pneumoniae ATCC 700603
[17] = Example 10 Table 38, compound alone, replicates

C[C@H]1[C@H](NC(=O)/C(=N\OC(C)(C)C(=O)O)c2csc(N)n2)C(=O)N1S(=O)(=O)O [Aztreonam]
MIC ([1]; ATCC700603, read-out: MIC of Aztreonam, Aztreonam alone): 64 µg/mL
MIC ([2]; ATCC27853, read-out: MIC of Aztreonam): 4 µg/mL
MIC ([3]; ATCC19606, read-out: MIC of Aztreonam, Aztreonam alone): 32 µg/mL
MIC ([3]; ATCC19606, read-out: MIC of aztreonam, Example 5 Table 20, GN_034): 32 µg/mL
MIC [3, 12]: 16 µg/mL (≈ 36.7 µM)
Minimum Inhibitory Concentration (MIC) [3, 13]: 16 µg/mL

CO/N=C(\C(=O)N[C@@H]1C(=O)N2C(C(=O)[O-])=C(C[N+]3(C)CCCC3)CS[C@H]12)c1csc(N)n1 [Cefepime]
MIC ([1]; ATCC700603, read-out: MIC of Cefepime): 1 µg/mL
MIC of Cefepime ([4]; Cefepime alone): 0.062 µg/mL
MIC ([4]; ATCC25922, read-out: MIC of Cefepime, Cefepime alone): 0.031 µg/mL
MIC ([2]; ATCC27853, read-out: MIC of Cefepime): 256 µg/mL
MIC ([3]; ATCC19606, read-out: MIC of Cefepime, Cefepime alone): 16 µg/mL
MIC ([3]; ATCC19606, read-out: MIC of Cefepime, Example 5 Table 20, GN_034): 16 µg/mL
MIC [3, 12]: 16 µg/mL (≈ 33.3 µM)
Minimum Inhibitory Concentration (MIC) [3, 13]: 16 µg/mL

CO[C@@]1(NC(=O)C2SC(=C(C(N)=O)C(=O)O)S2)C(=O)N2C(C(=O)O)=C(CSc3nnnn3C)CS[C@@H]21 (stereo partly drawn) [Cefotetan]
MIC of Cefotetan ([1]; Cefotetan alone): 1 µg/mL
MIC ([1]; ATCC700603, read-out: MIC of Cefotetan, Cefotetan alone): 0.5 µg/mL
MIC ([4]; ATCC25922, read-out: MIC of Cefotetan, Cefotetan alone): 0.25 µg/mL
MIC ([4]; ATCC25922, read-out: MIC of Cefotetan, Escherichia coli ATCC 25922): 0.25 µg/mL
MIC of Cefotetan ([2]; Cefotetan alone): 256 µg/mL
MIC ([2]; ATCC27853, read-out: MIC of Cefotetan): 256 µg/mL
MIC ([3]; ATCC19606, read-out: MIC of Cefotetan, Acinetobacter baumannii ATCC 19606): 256 µg/mL
MIC ([3]; ATCC19606, read-out: MIC of Cefotetan, Cefotetan alone): 256 µg/mL

CC(C)(O/N=C(\C(=O)N[C@@H]1C(=O)N2C(C(=O)[O-])=C(C[n+]3ccccc3)CS[C@H]12)c1csc(N)n1)C(=O)O [Ceftazidime]
MIC of Ceftazidime ([4]; Escherichia coli ATCC 25922): 0.062 µg/mL
MIC ([4]; ATCC25922, read-out: MIC of Ceftazidime, Escherichia coli ATCC 25922): 0.06 µg/mL
MIC of Ceftazidime [2, 14]: 4 µg/mL
MIC ([2]; ATCC27853, read-out: MIC of Ceftazidime): 4 µg/mL
MIC of Ceftazidime [3, 15]: 4 µg/mL
MIC ([3]; ATCC19606, read-out: MIC of Ceftazidime, Acinetobacter baumannii ATCC 19606): 4 µg/mL
MIC of Ceftazidime [5, 16]: 128 µg/mL
MIC ([5]; ATCC 13883 / ATCC 700603, read-out: MIC of Ceftazidime, Klebsiella pneumoniae ATCC 700603): 64 µg/mL

CO/N=C(\C(=O)N[C@@H]1C(=O)N2C(C(=O)O)=C(COC(N)=O)CS[C@H]12)c1ccco1 [Cefuroxime]
MIC ([4]; ATCC25922, read-out: MIC of Cefuroxime, Escherichia coli ATCC 25922): 2 µg/mL
MIC ([2]; ATCC27853, read-out: MIC of Cefuroxime): 256 µg/mL
MIC ([3]; ATCC19606, read-out: MIC of Cefuroxime, Acinetobacter baumannii ATCC 19606): 64 µg/mL
MIC ([3]; ATCC19606, read-out: MIC of cefuroxime, Example 2 Table 8, GN_034): 64 µg/mL
MIC ([3]; ATCC19606, read-out: Minimum Inhibitory Concentration (MIC), Example 2 Table 7, GN_034, compound alone, replicates): > 32 µg/mL
Minimum Inhibitory Concentration (MIC) ([3]; Example 2 Table 7, GN_034, compound alone, replicates, listed as MCC_009386): >32 μg/mL and 64 μg/mL (2×)
MIC ([5]; ATCC 13883 / ATCC 700603, read-out: MIC of Cefuroxime, Klebsiella pneumoniae ATCC 700603): 16 µg/mL

CCC[C@@H]1C[C@@H](C(=O)N[C@@H]([C@H]2O[C@H](SC)[C@H](O)[C@@H](O)[C@H]2O)[C@H](C)Cl)N(C)C1 [Clindamycin hydrochloride monohydrate]
MIC [6]: 4 µg/mL
MIC (Test results) [6]: 4 μg/mL and 8 μg/mL (2×)
MIC [7]: 128 µg/mL
MIC (Test results) [7]: 128 μg/mL (2×) and >128 μg/mL

C/C(=C\C(=O)OCCCCCCCCC(=O)O)C[C@@H]1OC[C@H](C[C@@H]2O[C@H]2[C@@H](C)[C@H](C)O)[C@@H](O)[C@H]1O [Mupirocin]
MIC [6]: 32 µg/mL (≈ 63.9 µM)
MIC (Test results) [6]: 16 µg/mL (≈ 32 µM)
MIC [7]: 128 µg/mL (≈ 256 µM)
MIC (Test results) [7]: 128 µg/mL (≈ 256 µM)

CC(C)C[C@@H]1NC(=O)[C@@H](Cc2ccccc2)NC(=O)[C@H](CCN)NC(=O)[C@@H](NC(=O)[C@H](CCN)NC(=O)[C@@H](N)[C@@H](C)O)CCNC(=O)[C@H]([C@@H](C)O)NC(=O)[C@H](CCN)NC(=O)[C@H](CCN)NC1=O [PMBN] (HELM PEPTIDE1{T.[Dab].[Dab].[Dab].[dF].L.[Dab].[Dab].T}$PEPTIDE1,PEPTIDE1,3:R3-9:R2$$$V2.0; N-terminus assumed; bridges inferred)
antimicrobial activity alone ([8]; Example 10): poor antimicrobial activity
MIC [8, 17]: >32 µg/mL
MIC of PMBN ([8]; Example 10 Table 39): >32 µg/mL
antimicrobial activity alone ([9]; Example 10): poor antimicrobial activity
MIC [9, 17]: >32 µg/mL
MIC of PMBN ([9]; Example 10 Table 39): >32 µg/mL
antimicrobial activity alone ([10]; Example 10): poor antimicrobial activity
MIC [10, 17]: >32 µg/mL
MIC of PMBN ([10]; Example 10 Table 39): >32 µg/mL
antimicrobial activity alone ([11]; Example 10): poor antimicrobial activity
MIC [11, 17]: >32 µg/mL
MIC of PMBN ([11]; Example 10 Table 39): >32 µg/mL

CC(=O)N[C@H](C(=O)N[C@H](CO)C(=O)N[C@H]1CCNC(=O)[C@H]([C@@H](C)O)NC(=O)[C@H](CCN)NC(=O)[C@H](CCN)NC(=O)[C@H](CC(C)C)NC(=O)[C@@H](Cc2ccccc2)NC(=O)[C@H](CCN)NC1=O)[C@@H](C)O [Spero Potentiator SPR741] (HELM PEPTIDE1{[ac].T.[dS].[Dab].[Dab].[dF].L.[Dab].[Dab].T}$PEPTIDE1,PEPTIDE1,4:R3-10:R2$$$V2.0)
MIC of Spero Potentiator SPR741 ([4]; Escherichia coli ATCC 25922, alone): 64 µg/mL and 128 µg/mL
MIC of Spero Potentiator SPR741 ([2]; Pseudomonas aeruginosa ATCC 27853, alone): 64.00 µg/mL and 64 µg/mL
MIC of Spero Potentiator SPR741 ([3]; Acinetobacter baumannii ATCC 19606, alone): >128 µg/mL and >64 µg/mL
MIC of Spero Potentiator SPR741 ([5]; Klebsiella pneumoniae ATCC 700603 (so in the source), alone): >128 µg/mL and >64 µg/mL

CC1(C)S[C@@H]2[C@H](NC(=O)[C@H](C(=O)O)c3ccsc3)C(=O)N2[C@H]1C(=O)O [Ticarcillin]
MIC ([4]; ATCC25922, read-out: MIC of Ticarcillin): 8 µg/mL
MIC of Ticarcillin [2, 14]: 16 µg/mL
MIC ([2]; ATCC27853, read-out: MIC of Ticarcillin, Pseudomonas aeruginosa ATCC 27853): 32 µg/mL
MIC ([3]; ATCC19606, read-out: MIC of Ticarcillin): 4 µg/mL
MIC ([5]; ATCC 13883 / ATCC 700603, read-out: MIC of Ticarcillin): 128 µg/mL

Colistin
activity alone ([6]; Example 11, Lipid A deficient GN_237): resistant
MIC of Colistin ([4]; Escherichia coli ATCC 25922): 0.50 µg/mL and 0.5 µg/mL
Minimum Inhibitory Concentration (MIC) ([4]; Example 3 Table 11, GN_001, compound alone, replicates, listed as MCC_000094): 0.25 μg/mL and 0.5 μg/mL and 2 μg/mL (2×)
MIC of Colistin ([4]; Example 3 Table 12, GN_001): 0.5 µg/mL
MIC of Colistin [2, 14]: 1.00 µg/mL and 1 µg/mL
MIC of Colistin [3, 15]: 1.00 µg/mL and 1 µg/mL
Minimum Inhibitory Concentration (MIC) ([3]; Example 3 Table 11, GN_034, compound alone, replicates): 1 µg/mL
MIC of Colistin ([3]; Example 3 Table 12, GN_034): 1 µg/mL
MIC of Colistin [5, 16]: 0.50 µg/mL and 0.5 µg/mL

Colistin Sulfate
MIC (Test results) [6]: >128 μg/mL (2×) and 128 μg/mL (2×)
MIC (Test results) [7]: 1 µg/mL

Gentamycin
MIC (Test results) [6]: 1 μg/mL (2×) and 2 μg/mL and 0.5 μg/mL
MIC (Test results) [7]: 32 μg/mL (2×) and 64 μg/mL (2×)

Teicoplanin
MIC (Test results) [6]: 0.25 μg/mL (2×) and 0.5 μg/mL
MIC (Test results) [7]: >128 µg/mL
